Legend:
[1] = Cytotoxicity (CC50) in LM cells, MTT assay; type: cell-based; conditions: mouse, LM cells (mouse fibroblasts); 50% cytotoxic concentration
Method: (§1) First, the addition of recombinant TNF to mouse fibroblast LM cells induces cell death, and thus, by using the same, the TNF-neutralization bioassay was constructed. In other words, LM cells were pretreated with TNF (20 ng/ml) and the compounds synthesized in the above examples at various concentrations (5×10^4 cells/well), and a sensitizer actinomycin D ([…]) was added, and cultured in a CO2 incubator for 24 hours, and then the MTT assay was carried out. At this time, 10 μl of MTT (5 mg/ml stock) was added, reacted for 4 hours, and then dissolved in DMSO to measure the absorbance at 570 nm. First, the TNF cell death inhibition/neutralization action of TNF-target expected compounds at single concentration (50 or 10 μM) was measured. Second, IC50 values were determined by treating with the compounds having an excellent effect at different concentrations. The % inhibition of TNF was calculated using the following formula: % inhibition of TNF=(OD value of a group treated with TNF and compound−OD value of TNF treated group/(OD value of TNF untreated group−OD value of TNF treated group)×100.
(§2) IC50 values were statistically analyzed using Prism 6 (GraphPad) (IC50: 50% inhibitory concentration, CC50: 50% cytotoxic concentration).

TNF = TNF (Homo sapiens, UniProt P01375); assay: TNF-neutralization bioassay: TNF-induced cell death of LM cells (MTT); type: cell-based; conditions: for inhibition at 50 µM: compound 50 μM, TNF 20 ng/ml, actinomycin D, LM cells, 24 hours; for IC50: inhibition of TNF-induced LM cell death
TNF, sequence (P01375 77-233 limits assumed): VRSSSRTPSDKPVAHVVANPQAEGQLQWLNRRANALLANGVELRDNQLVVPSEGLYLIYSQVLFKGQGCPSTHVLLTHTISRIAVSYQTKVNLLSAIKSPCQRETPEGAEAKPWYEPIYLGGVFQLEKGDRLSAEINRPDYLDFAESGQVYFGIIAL
Method: as §1, §2

melting point [°C]	SMILES	CC50 at 24 h [1] [µM]	inhibition at 50 µM (TNF) [%]	IC50 (TNF) [µM]
196 to 198	O=C(O)c1c(-c2ccco2)oc2ccc(Cl)cc2c1=O [Example 23, 2-(2-furanyl)-3-carboxy-6-chloro-(4H)-4-benzopyranone]	> 50	70.1	2.7
195 to 198	O=C(O)c1c(-c2ccc(F)c(F)c2)oc2ccc(Cl)cc2c1=O [Example 67, 2-(3,4-difluorophenyl)-3-carboxy-6-chloro-(4H)-4-benzopyranone]	21	100	3.9
193 to 196	O=C(O)c1c(-c2cccc(F)c2)oc2ccccc2c1=O [Example 16, 2-(3-fluorophenyl)-3-carboxy-(4H)-4-benzopyranone]	> 50	70.2	16.8
160 to 163	O=C(O)c1c(-c2cccc(F)c2)oc2cc(Cl)ccc2c1=O [Example 44, 2-(3-fluorophenyl)-3-carboxy-7-chloro-(4H)-4-benzopyranone]	> 50	93.2	45.6
209 to 211	O=C(O)c1c(-c2ccco2)oc2ccc(Br)cc2c1=O [Example 24, 2-(2-furanyl)-3-carboxy-6-bromo-(4H)-4-benzopyranone]	> 50	76.3	2.5
168 to 170	O=C(O)c1c(-c2cc(F)ccc2F)oc2ccc(Cl)cc2c1=O [Example 62, 2-(2,5-difluorophenyl)-3-carboxy-6-chloro-(4H)-4-benzopyranone]	17	100	3.8
211 to 213	O=C(O)c1c(-c2ccc(Cl)cc2)oc2ccc(Br)cc2c1=O [Example 72, 2-(4-chlorophenyl)-3-carboxy-6-bromo-(4H)-4-benzopyranone]	> 50	100	20.8
≥ 120	O=C(O)c1c(-c2cccc(F)c2F)oc2ccc(Cl)cc2c1=O [Example 56, 2-(2,3-difluorophenyl)-3-carboxy-6-chloro-(4H)-4-benzopyranone]	49	100	16.4
208 to 209	O=C(O)c1c(-c2cc(F)cc(F)c2)oc2ccccc2c1=O [Example 17, 2-(3,5-difluorophenyl)-3-carboxy-(4H)-4-benzopyranone]	> 50	71	2.5
238 to 239	COc1cccc2c(=O)c(C(=O)O)c(-c3ccc(Cl)cc3)oc12 [Example 74, 2-(4-chlorophenyl)-3-carboxy-8-methoxy-(4H)-4-benzopyranone]	> 50	79	52.5
222 to 223	O=C(O)c1c(-c2cccc(F)c2)oc2ccc(Br)cc2c1=O [Example 46, 2-(3-fluorophenyl)-3-carboxy-6-bromo-(4H)-4-benzopyranone]	> 50	100	28.9
≥ 120	O=C(O)c1c(-c2cccc(F)c2F)oc2ccc(Br)cc2c1=O [Example 57, 2-(2,3-difluorophenyl)-3-carboxy-6-bromo-(4H)-4-benzopyranone]	47	100	10.3
227 to 228	O=C(O)c1c(-c2ccc(Cl)cc2)oc2ccc(Cl)cc2c1=O [Example 71, 2-(4-chlorophenyl)-3-carboxy-6-chloro-(4H)-4-benzopyranone]	36	97.9	3.3
≥ 220	O=C(O)c1c(-c2cccc(F)c2F)oc2cc(Cl)ccc2c1=O [Example 55, 2-(2,3-difluorophenyl)-3-carboxy-7-chloro-(4H)-4-benzopyranone]	25	100	33.6
216 to 217	O=C(O)c1c(-c2cccc(F)c2)oc2ccc(Cl)cc2c1=O [Example 45, 2-(3-fluorophenyl)-3-carboxy-6-chloro-(4H)-4-benzopyranone]	42	88.4	18.5
167 to 169	Cc1cccc2c(=O)c(C(=O)O)c(-c3cccc(F)c3F)oc12 [Example 52, 2-(2,3-difluorophenyl)-3-carboxy-8-methyl-(4H)-4-benzopyranone]	–	18.5	–

melting point [°C]	SMILES	CC50 at 24 h [1] [µM]	inhibition at 50 µM (TNF) [%]	IC50 (TNF) [µM]
170 to 172	Cc1cccc2c(=O)c(C(=O)O)c(-c3cc(F)ccc3F)oc12 [Example 58, 2-(2,5-difluorophenyl)-3-carboxy-8-methyl-(4H)-4-benzopyranone]	–	33.8	–
232 to 233	O=C(O)c1c(-c2cccs2)oc2cc(Cl)ccc2c1=O [Example 34, 2-(2-thiophenyl)-3-carboxy-7-chloro-(4H)-4-benzopyranone]	–	21.7	–
208 to 210	COc1ccc2c(=O)c(C(=O)O)c(-c3ccc(OC)c(OC)c3)oc2c1 [Example 9, 2-(3,4-dimethoxyphenyl)-3-carboxy-7-methoxy-(4H)-4-benzopyranone]	–	49.2	–
152 to 153	O=C(O)c1c(-c2cc(F)ccc2F)oc2ccc(Br)cc2c1=O [Example 63, 2-(2,5-difluorophenyl)-3-carboxy-6-bromo-(4H)-4-benzopyranone]	36	100	36.9
217 to 219	COc1ccc2c(=O)c(C(=O)O)c(-c3ccco3)oc2c1 [Example 3, 2-(2-furanyl)-3-carboxy-7-methoxy-(4H)-4-benzopyranone]	–	26.3	–
243 to 244	Cc1cccc2c(=O)c(C(=O)O)c(-c3cc(F)cc(F)c3)oc12 [Example 47, 2-(3,5-difluorophenyl)-3-carboxy-8-methyl-(4H)-4-benzopyranone]	–	21.4	–
198 to 199	COc1ccc2oc(-c3cccc(C)c3)c(C(=O)O)c(=O)c2c1 [Example 7, 2-(3-methylphenyl)-3-carboxy-6-methoxy-(4H)-4-benzopyranone]	–	47	–
207 to 209	O=C(O)c1c(-c2cc(F)cc(F)c2)oc2ccc(Cl)cc2c1=O [Example 50, 2-(3,5-difluorophenyl)-3-carboxy-6-chloro-(4H)-4-benzopyranone]	36	100	5.1
242 to 243	COc1ccc(-c2oc3ccc(Br)cc3c(=O)c2C(=O)O)cc1OC [Example 40, 2-(3,4-dimethoxyphenyl)-3-carboxy-6-bromo-(4H)-4-benzopyranone]	> 50	100	122
212 to 213	O=C(O)c1c(-c2ccc(Cl)cc2)oc2ccccc2c1=O [Example 73, 2-(4-chlorophenyl)-3-carboxy-(4H)-4-benzopyranone]	–	42	–
178 to 181	Cc1ccc2c(=O)c(C(=O)O)c(-c3cccc(F)c3)oc2c1 [Example 42, 2-(3-fluorophenyl)-3-carboxy-7-methyl-(4H)-4-benzopyranone]	–	23	–
156 to 158	Cc1ccc2c(=O)c(C(=O)O)c(-c3cc(F)ccc3F)oc2c1 [Example 59, 2-(2,5-difluorophenyl)-3-carboxy-7-methyl-(4H)-4-benzopyranone]	–	32.3	–
≥ 120	Cc1ccc2oc(-c3cc(F)ccc3F)c(C(=O)O)c(=O)c2c1 [Example 60, 2-(2,5-difluorophenyl)-3-carboxy-6-methyl-(4H)-4-benzopyranone]	–	28.1	–
155 to 156	Cc1ccc2c(=O)c(C(=O)O)c(-c3cccc(F)c3F)oc2c1 [Example 53, 2-(2,3-difluorophenyl)-3-carboxy-7-methyl-(4H)-4-benzopyranone]	–	22.8	–
202 to 205	O=C(O)c1c(-c2ccco2)oc2ccccc2c1=O [Example 18, 2-(2-furanyl)-3-carboxy-(4H)-4-benzopyranone]	–	48.6	–
162 to 164	Cc1cccc(-c2oc3ccccc3c(=O)c2C(=O)O)c1 [Example 19, 2-(3-methylphenyl)-3-carboxy-(4H)-4-benzopyranone]	–	48.3	–

Reference: patent US11504349B2, “Composition for preventing or treating TNF-related diseases, containing novel derivative as active ingredient, and method for inhibiting TNF activity by using same” (ILAB, priority 2017, dated 2022)
